Reference: US20040097566A1, “2-Substituted thiazolidinone and oxazolidinone derivatives for the inhibition of phosphatases and the treatment of cancer” (priority 2001, published 2004)

Row | melting point | Structure (SMILES)
1 | 286 to 288 °C | CONC1=NC(=O)/C(=C/c2cccc(-c3cc(F)c(O)c(C45CC6CC(CC(C6)C4)C5)c3)c2)S1 [Compound 71, 5-[3-(3-Adamantan-1-yl-4-hydroxy-5-fluorophenyl)benzylidene]-2-methoxyamino-thiazol-4-one]
2 | 304 to 309 °C | O=C1N=C(NN2CCOCC2)S/C1=C\c1cccc(-c2cc(F)c(O)c(C34CC5CC(CC(C5)C3)C4)c2)c1 [Compound 73, 5-[3-(3-Adamantan-1-yl-4-hydroxy-5-fluorophenyl)benzylidene]-2-(morpholin-4-yl-amino)-thiazol-4-one]
3 | 234 to 236 °C | NC(=O)NNC1=NC(=O)/C(=C/c2cccc(-c3cc(F)c(O)c(C45CC6CC(CC(C6)C4)C5)c3)c2)S1 [Compound 72, 5-[3-(3-Adamantan-1-yl-4-hydroxy-5-fluorophenyl)benzylidene]-2-semicarbazid-1-yl-thiazol-4-one]
4 | 355 to 360 °C | COc1ccc(-c2ccc(O)c(C34CC5CC(CC(C5)C3)C4)c2)cc1/C=C1\SC(N2CCOCC2)=NC1=O [Compound 86, 5-[3-(3-Adamantan-1-yl-4-hydroxy-phenyl)-6-methoxy-benzylidene]-2-morpholin-4-yl-thiazol-4-one]

More lines, now with the values behind:

Row | Structure (SMILES) | melting point
5 | O=C1N=C(N2CCN(c3cccc(C(F)(F)F)c3)CC2)S/C1=C\c1cccc(-c2cc(F)c(O)c(C34CC5CC(CC(C5)C3)C4)c2)c1 [Compound 19, 5-[3-(3-Adamantan-1-yl-4-hydroxy-5-fluoro-phenyl)benzylidene]-2-[4-(3-trifluoromethyl-phenyl)-piperazon-1-yl]-thiazol-4-one] | 291 to 293 °C
6 | O=C1N=C(N2CCNCC2)S/C1=C\c1cccc(-c2cc(F)c(O)c(C34CC5CC(CC(C5)C3)C4)c2)c1 [Compound 31, 5-[3-(3-Adamantan-1-yl-4-hydroxy-5-fluoro-phenyl)benzylidene]-2piperazin-1-yl-thiazol-4-one] | 230 to 233 °C
7 | O=C1N=C(N2CCCCCC2)S/C1=C\c1cccc(-c2ccc(O)c(C34CC5CC(CC(C5)C3)C4)c2)c1 [Compound 14, 5-[3-(3-Adamantan-1-yl-4-hydroxy-phenyl)benzylidene]-2-azepan-1-yl-thiazol-4-one] | 321 to 324 °C
8 | CN(C)c1ccc(/C=C2\SC(N3CCCC3)=NC2=O)cc1-c1cc(F)c(O)c(C23CC4CC(CC(C4)C2)C3)c1 [Compound 61, 5-[3-(3-Adamantan-1-yl-4-hydroxy-5-fluoro-phenyl)-4-dimethylamino-benzylidene]-2-pyrrolidin-1-yl-thiazol-4-one] | 294 to 298 °C
9 | CN1CCN(C2=NC(=O)/C(=C/c3cccc(-c4ccc(O)c(C56CC7CC(CC(C7)C5)C6)c4)c3)S2)CC1 [Compound 8, 5-[3-(3-Adamantan-1-yl-4-hydroxy-phenyl)benzylidene]-2-(4-methyl-piperazin-1-yl)-thiazol-4-one] | 291 to 294 °C
10 | O=C1N=C(N2CCC[C@H]2C(=O)O)S/C1=C\c1cccc(-c2cc(F)c(O)c(C34CC5CC(CC(C5)C3)C4)c2)c1 [Compound 53, 5-[3-(3-Adamantan-1-yl-4-hydroxy-5-fluoro-phenyl)benzylidene]-2-(2-(S)-carboxy-1-yl)-thiazol-4-one] | 195 to 198 °C
11 | C[C@H]1CN(C2=NC(=O)/C(=C/c3cccc(-c4cc(F)c(O)c(C56CC7CC(CC(C7)C5)C6)c4)c3)S2)C[C@H](C)O1 (relative stereo) [Compound 50, 5-[3-(3-Adamantan-1-yl-4-hydroxy-5-fluoro-phenyl)benzylidene]-2-(trans-2,6-dimethylmorpholin-4-yl)-thiazol-4-one] | 262 to 264 °C
12 | O=C1N=C(N2CCCCC2)S/C1=C\c1ccc(-c2ccc(O)c(C34CC5CC(CC(C5)C3)C4)c2)cc1 [Compound 4, 5-[4-(3-Adamantan-1-yl-4-hydroxy-phenyl)benzylidene]-2-piperidin-1yl-thiazol-4-one] | 325 to 328 °C
